Assay results as given in patent EP4623908A1, “USE OF (-)-EPIGALLOCATECHIN GALLATE COMPOUND” (CF Pharmtech, Inc., priority 2022, dated 2024).

Legend:
[1] = tested on: TGFβ receptor 1 and 2 (TGFβR1/2) kinases; conditions: cited from earlier work
[2] = tested on: Bleomycin-Induced Pulmonary Fibrosis in Mice; test: Bleomycin-induced pulmonary fibrosis model in mice (Example 4); assay type: in vivo, C57BL/6J mice; conditions: for Hydroxyproline Content: mouse lung tissue, Mean±SEM
Method: A total of 56 male C57BL/6J mice, SPF grade, aged 7-10 weeks, with a body weight range of 20-35g, were purchased from SPF (Beijing) Biotechnology Co., Ltd..
Injectable Bleomycin (BLM, 15mg/vial, batch number 20067411): Hanhui Pharmaceutical Co., Ltd. • Solvent 1: Components include purified water, citric acid, and sodium citrate, a transparent, clear liquid. • Solvent 2: Sodium chloride injection (batch number K21080307), purchased from Hanhui Pharmaceuticals Co., Ltd (formerly Hisun-Pfizer Pharmaceuticals Co., Ltd.). • Hydroxyproline (HYP) assay kit: Purchased from Merck Sigma-Aldrich.
The mice were randomly divided into the following groups, with 8 mice in each group: • Sham operation group (normal control group), • Pulmonary fibrosis model group, • Oral gavage group, • Tracheal Nebulization groups 1-4.
On Day 1 (D1), the normal control group mice were administered solvent 2 (sodium chloride injection, 1 mL/kg) via tracheal nebulization. All other groups were administered bleomycin (2 mg/kg, 1 mL/kg) via tracheal nebulization in the morning and afternoon to construct the pulmonary fibrosis model.
The oral gavage dose for mice was 100 mg/kg (calculated based on the oral dose of 60 mg/kg for rats, according to FDA guidelines, and converted for equivalent oral dosage in mice by body surface area). The tracheal nebulization doses were 0.2 mg/kg, 0.4 mg/kg, 0.8 mg/kg, and 1.6 mg/kg. Both the normal control group and the pulmonary fibrosis model group were administered solvent 1 via tracheal nebulization once a day, starting on D10 post-model induction.
Mice from each group were anesthetized on Day 22 via intraperitoneal injection of chloral hydrate (50 mg/mL, 0.1 mL/10g) and sacrificed by abdominal aorta blood collection. All animals underwent dissection, and lung tissues were preserved. The total lung weight (including animals that died unexpectedly or were euthanized) was measured. The left lung was excised and stored at below -60°C for hydroxyproline content testing. The remaining right lung tissue and bronchioles were fixed in 10% neutral-buffered formalin and processed for routine histology: paraffin embedding, sectioning, HE staining, and Masson staining.
Lung coefficient = lung weight (mg)/body weight (g). [formula] Early-stage inflammation with infiltration of inflammatory cells, followed by the proliferation of fibroblasts and excessive collagen deposition, leads to an increase in lung coefficient. Thus, the lung coefficient serves as an indirect indicator of the inflammation and fibrosis degree in mice.
Mice were weighed prior to grouping, on the model induction day, after the first drug administration, and every 3 days thereafter. […] Changes in body weight reflect the effect of the drug administration. Statistical analysis was performed using two-way ANOVA and Tukey's multiple comparison test.
Lung tissue inflammation, fibroproliferation, and other pathological changes were evaluated by optical microscopy on HE-stained sections. Masson staining was used to assess the degree of fibrosis in lung tissue. Standardized terminology was applied to classify fibrosis, inflammatory cell infiltration, alveolar hemorrhage, dilation, epithelial hyperplasia, and fibrous exudate using a 4-point scale (mild, moderate, severe, and very severe).
Hydroxyproline content in lung tissue was measured according to the instructions of the assay kit.
Statistical tests commonly used in the field, such as Student's t-test, chi-square test, Mann-Whitney U test, Kruskal-Wallis test (H test), Jonckheere-Terpstra test, and Wilcoxon test, were performed. Statistical analysis was done using SPSS (13.0) software. Results are presented as mean ± standard error. Overall differences were evaluated by One-Way ANOVA for homogeneity of variance, followed by Dunnett's test for inter-group comparisons. When normality tests failed, Kruskal-Wallis test was used for inter-group comparisons. Two-Way ANOVA and Tukey's test were used for multiple comparisons between groups. […]

[3] = Pharmacokinetics of low-dose tracheal nebulization and oral gavage in rat plasma and lungs (Example 3); assay type: in vivo, rats; conditions: for Lung AUC0-t / Lung Cmax: rat lung tissue, average
Method: As described in Example 1, the administration methods of oral gavage or tracheal nebulization of different doses of EGCG solution in rats were used to study the pharmacokinetic parameters of the drug in the lungs. The tracheal nebulization doses were 0.05 mg/kg, 0.1 mg/kg, 0.2 mg/kg, and 0.4 mg/kg, with 6-8 rats per dose group. The oral gavage dose was 60 mg/kg, with 6 rats.
The blood sampling method and sample processing were as described in Example 2. The blood collection time points for this experiment were 5 minutes, 2 hours, 6 hours, 8 hours, 10 hours, and 16 hours post-administration, with approximately […] of whole blood collected at each time point.

[4] = 26 IPF patients; oral co-administration; cited from earlier work
[5] = cited from earlier work
[6] = Tracheal Nebulization (inh) 0.05 mg/kg
[7] = Tracheal Nebulization (inh) 0.1 mg/kg
[8] = Tracheal Nebulization (inh) 0.2 mg/kg
[9] = Tracheal Nebulization (inh) 0.4 mg/kg
[10] = rat, after oral gavage 60 mg/kg

O=C(O[C@@H]1Cc2c(O)cc(O)cc2O[C@@H]1c1cc(O)c(O)c(O)c1)c1cc(O)c(O)c(O)c1 [EGCG, (-)-Epigallocatechin gallate]
inhibition of TGFβR1/2 kinases [1]: effectively inhibit
fibrosis score vs model group ([2]; aerosol dose 0.4mg/kg or higher, P < 0.05): significant reduction in pulmonary fibrosis
inhibiting alveolar expansion ([2]; all tracheal nebulization groups (0.2, 0.4, 0.8, 1.6mg/kg), 0.4mg/kg most effective): significant differences compared to the model group
inhibiting inflammatory cell infiltration ([2]; all tracheal nebulization groups, 0.4mg/kg best (P < 0.05)): reduced inflammatory cell infiltration
fibrosis in the lungs (Masson's staining) ([2]; inhaling 0.8mg/kg and 1.6mg/kg, D22): almost close to the level of the healthy control group
Hydroxyproline Content ([2]; D22, Inh. 0.2mg/kg once a day from D10): 2.807 ± 0.3982 µg/µL
Hydroxyproline Content ([2]; D22, Inh. 0.4mg/kg once a day from D10): 2.046 ± 0.690 µg/µL
Hydroxyproline Content ([2]; D22, Inh. 0.8mg/kg once a day from D10): 1.033 ± 0.1476 µg/µL
Hydroxyproline Content ([2]; D22, Inh. 1.6 mg/kg once a day from D10): 1.67 ± 0.1888 µg/µL
Hydroxyproline Content ([2]; D22, P.O 100mg/kg once a day from D10): 1.928 ± 0.1326 µg/µL
collagen deposition (Masson's staining) vs model group ([2]; oral administration 100 mg/kg, difference not significant, D22): decreased slightly
lung tissue histopathology (H&E staining) ([2]; oral administration 100 mg/kg, no significant difference vs model group, D22): slight improvement in lung tissue morphology
inhibiting inflammatory cell infiltration ([2]; oral administration (oral gavage) 100 mg/kg): no anti-inflammatory effect
alveolar inflammation scores vs model group ([2]; oral gavage 100 mg/kg): no significant difference
body weight ([2]; oral gavage 100 mg/kg): weight gain in the oral gavage group was slower
fibrosis score vs model group ([2]; oral gavage 100 mg/kg): did not show a significant difference
lung coefficient vs model group ([2]; oral gavage 100 mg/kg): did not show a significant difference
alveolar inflammation scores vs model group ([2]; tracheal nebulization): significantly suppressed the further development of alveolar inflammation
inhibiting alveolar hemorrhage ([2]; tracheal nebulization 0.2mg/kg and 0.4mg/kg): significantly better than the oral gavage group
lung coefficient vs model group ([2]; tracheal nebulization 0.2mg/kg and 0.4mg/kg, P < 0.01, P < 0.001): significantly reduced
body weight ([2]; tracheal nebulization 0.2mg/kg and 0.4mg/kg, significant vs model group): returned to baseline levels by Day 22
hydroxyproline content in lung tissue (in words) ([2]; tracheal nebulization 0.2mg/kg, 0.4mg/kg, and 0.8mg/kg, D22): dose-dependently reduced
inhibiting alveolar fibrous exudates ([2]; tracheal nebulization 1.6mg/kg): significant differences compared to the model group
lung tissue histopathology (H&E staining) ([2]; tracheal nebulization, best at 0.4mg/kg and 0.8mg/kg, D22): reduced alveolar interstitial proliferation
collagen deposition (Masson's staining) vs model group ([2]; tracheal nebulization, dose-response, especially 0.4mg/kg and above, D22): significantly reduced collagen deposition
Cmax ([3]; lung, inhaled or intranasal, rat, inhalation dose above 0.2 mg/kg, read-out: maximum drug concentration (Cmax) in the lungs): > 1000 ng/mL
Lung AUC0-t [3, 6]: 284.7 ng·h/mL
Lung Cmax [3, 6]: 79.6 ng/mL
Lung AUC0-t [3, 7]: 1031.4 ng·h/mL
Lung Cmax [3, 7]: 220.4 ng/mL
Lung AUC0-t [3, 8]: 3082.7 ng·h/mL
Lung Cmax [3, 8]: 1038.0 ng/mL
Lung AUC0-t [3, 9]: 11764.1 ng·h/mL
Lung Cmax [3, 9]: 3180.0 ng/mL
Lung AUC0-t ([3]; oral gavage (po) 60 mg/kg): 226.4 ng·h/mL
Lung Cmax ([3]; oral gavage (po) 60 mg/kg): 43.4 ng/mL
lung concentration [3, 10]: less than 100 ng/mL
plasma drug concentrations [3, 10]: less than 100 ng/mL
inhalation dose as fraction of the oral dose at comparable lung drug concentration ([3]; rat, inh 0.05 mg/kg vs oral gavage 60 mg/kg): 1/1200
peak concentration in the lungs of the oral administration ([3]; rat, oral gavage 60 mg/kg): 32 ng/mL
drug concentration in the lungs ([3]; rat, tracheal nebulization of 0.1, 0.2, or 0.4 mg/kg, for up to 16 hours): greater than 50 ng/mL
reduction of the plasma exposure of Nintedanib on co-administration [4]: about 21%
serum transaminases ([5]; daily oral intake at doses equal to or higher than 800 mg): significantly increased serum transaminases
body weight of patients ([5]; oral): significantly reduce the body weight
